Source: paper PMC9555642 (PLoS ONE, 2022)

Target: T1, HDAC10 (Homo sapiens, UniProt Q969S8)
T1 construct: purchased Eurofins Pharma Discovery Services 2662
T1 sequence (Q969S8 1-669): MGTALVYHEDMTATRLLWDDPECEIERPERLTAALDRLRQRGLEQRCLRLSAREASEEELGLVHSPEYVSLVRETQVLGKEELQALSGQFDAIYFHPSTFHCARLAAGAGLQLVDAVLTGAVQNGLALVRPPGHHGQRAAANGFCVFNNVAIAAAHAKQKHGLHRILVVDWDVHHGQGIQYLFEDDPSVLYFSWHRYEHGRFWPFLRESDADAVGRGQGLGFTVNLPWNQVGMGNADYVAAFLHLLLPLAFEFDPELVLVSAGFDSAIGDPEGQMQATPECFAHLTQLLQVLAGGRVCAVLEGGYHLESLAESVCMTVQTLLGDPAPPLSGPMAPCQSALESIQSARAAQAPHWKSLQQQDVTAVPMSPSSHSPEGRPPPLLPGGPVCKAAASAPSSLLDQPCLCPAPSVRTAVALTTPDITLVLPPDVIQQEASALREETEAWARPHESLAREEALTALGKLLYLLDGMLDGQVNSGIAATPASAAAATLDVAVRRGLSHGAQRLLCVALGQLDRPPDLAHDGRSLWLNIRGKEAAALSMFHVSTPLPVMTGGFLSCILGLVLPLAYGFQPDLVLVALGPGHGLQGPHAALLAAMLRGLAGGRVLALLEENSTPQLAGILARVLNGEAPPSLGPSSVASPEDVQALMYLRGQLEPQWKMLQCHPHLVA
Assay: HDAC enzymatic activity (Eurofins)
Format: biochemical

In the case of `O=C(CCCCCCNC(=O)c1cnc(N(c2ccccc2)c2ccccc2)nc1)NO` [Ricolinostat], the IC50 is reported as 901 nM.
